What was measured:
[1] = system: THP-1 cells; assay: Viability of acute myeloid leukaemia cell line THP-1; type: cell-based, human; details: 5-30 μM, 48 h
Protocol: THP-1 cells were seeded in medium at 10,000 cells/well, as indicated by the dotted line. Cells were incubated for 48 hours in medium supplemented with water, C3A-Pen, P7-Pen, P7-A4-Pen or P7-N4-Pen. The peptides were included at concentrations ranging from 5-30 μM. At 48 hours cells were counted. […] The results with other peptides were less clear-cut. Results are based on 3 biological replicates, error bars show standard deviation of mean.
(§1) The peptides were tested against the SW480 cell line in the presence and absence of LPS.

[2] = system: murine TLR7; assay: TLR7-mediated cytokine expression in murine macrophages (R848); type: cell-based, mouse; details: R848 (data not shown)
Description: Thus, P7-Pen interferes with signaling initiated by human TLR7 and TLR8, but has no effect on signaling via murine TLR7 (murine TLR8 is believed to be non-functional).

[3] = system: THP-1 WT cells and THP-1 TRAM^CHERRY; assay: Confocal analysis of bacterial bioparticle uptake by THP-1 cells; type: cell-based, human; details: 15 μM, 30 min pre-incubation
Protocol: Cells were pre-incubated with Pen or P7-Pen peptides, followed by addition of Alexa Fluor 488-labeled bioparticles for the times indicated (15, 30 or 45 min). Fluorescent bacteria particles were counted by spot-detection in Bitplane Imaris imaging software and used to calculate the number of particles per cell. […] Pre-incubation with 3 μM cytochalasin D (CytoD, and inhibitor of actin polymerization) inhibited uptake of E. coli to a similar extent as P7-Pen.
THP-1 cells, THP-1^cherry cells or human PBMC were seeded in 24-well glass-bottom plates (MatTek Corporation), 125,000 cells/well. The THP-1 cells were differentiated into macrophages with 60 ng/ml PMA for 72 h and thereafter rested for 48 h, whereas the PBMC were used the day after isolation. The P7-penatratin peptide or control peptide was added to the cells 30 min before stimulation at 15 μM concentration. If used, 3 μM cytochalasin D (CytoD) was added simultaneously. […] A spot detection mode in the Bitplan Imaris software was used to define individual phagosomes and cells were counted manually. […] Fluorescence voxel intensity of TRAM^cherry at the phagosome is also presented. Statistical significance was calculated in GraphPad Prism by One-way ANOVA Kruskal-Wallis multiple comparison test. […]

[4] = system: SW480 cells; assay: Proliferation of SW480 colon cancer cells; type: cell-based, human; details: 15 μM, 48 h, with or without LPS 100 ng/ml
Protocol: SW480 cells were seeded and incubated in medium alone or supplemented with water, 15 μM penetratin, 15 μM P7-Pen or 15 μM P7-N4-Pen. Under each condition cells were incubated both without LPS and with 100 ng/ml LPS. Cells were incubated for 48 hours then counted. […] The presence of LPS made no difference to the effect of the peptides on proliferation. Results are based on 3 biological replicates, error bars show standard deviation of mean.
SW480 (ATCC CCL-228) and Jurkat (ATCC Clone E6-1; TIB-152) cells were cultured in RPMI 1640 (Sigma-Aldrich, Schnelldorf, Germany) supplemented with 10% heat-inactivated FCS, penicillin/streptomycin (Life Technologies) and 20 mM L-Glutamine. THP-1 cells (ATCC TIB-202) were cultured in RPMI-1640 (high-glucose, ATCC) supplemented with 10% heat inactivated foetal calf serum (FCS), 100 nM penicillin/streptomycin and 5 μM β-mercaptoethanol (Sigma). THP-1 cells were differentiated with 60 ng/ml phorbol 12-myristate 13-acetate (PMA, Sigma) for 72 h, followed by 24 or 48 h in medium without PMA.
as §1

Substance	effect on THP-1 cell number [1]	TLR7-mediated cytokine expression [2]	uptake of S. aureus bioparticles ([3]; THP-1 TRAM^CHERRY)	uptake of E. coli particles ([3]; THP-1 WT and THP-1 TRAM^CHERRY)	effect on proliferation of SW480 cells [4]
Ac-ITVAASVTLTGRQIKIWFQNRRMKWKK-NH2 [Peptide P7-A4-Pen]	anti-proliferative effect	–	–	–	–
Ac-ITVYASVTLTGRQIKIWFQNRRMKWKK-NH2 [Peptide P7-Pen]	–	no effect	inhibited	inhibited	a degree of anti-proliferative effect

Source: patent publication US20230220047A1, “PEPTIDES FOR TREATMENT OF SEPSIS AND CANCER” (NORWEGIAN UNIVERSITY OF SCIENCE AND TECHNOLOGY (NTNU), priority 2020, published 2023)
